Source: patent publication US20090018134A1, “Compounds - 945” (AstraZeneca AB, priority 2007, published 2009)
Where two headings read alike, the source gives them in different places.

Target: T1, mTOR (Homo sapiens, UniProt P42345)
T1 construct: FLAG; made in house
Assay: In Vitro mTOR Kinase Assay (Echo), Test (a)(ii)
Type: biochemical
Summary of the method: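 Enzyme: HEK293-expressed, FLAG-purified mTOR C-terminal fragment (aa 1362-2549). Rxn 2 h RT with biotinylated peptide, stopped with EDTA 50 mM/BSA/Tris pH 7.4. Detection: T389 phospho-antibody AlphaScreen, 680 nm excitation. IC50.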

[1] = table of enzyme assay Test (a)(ii), read-out: Test (a)(ii) IC50
[2] = read-out: mTOR Kinase Assay (Echo)

T1 sequence (P42345 1362-2549): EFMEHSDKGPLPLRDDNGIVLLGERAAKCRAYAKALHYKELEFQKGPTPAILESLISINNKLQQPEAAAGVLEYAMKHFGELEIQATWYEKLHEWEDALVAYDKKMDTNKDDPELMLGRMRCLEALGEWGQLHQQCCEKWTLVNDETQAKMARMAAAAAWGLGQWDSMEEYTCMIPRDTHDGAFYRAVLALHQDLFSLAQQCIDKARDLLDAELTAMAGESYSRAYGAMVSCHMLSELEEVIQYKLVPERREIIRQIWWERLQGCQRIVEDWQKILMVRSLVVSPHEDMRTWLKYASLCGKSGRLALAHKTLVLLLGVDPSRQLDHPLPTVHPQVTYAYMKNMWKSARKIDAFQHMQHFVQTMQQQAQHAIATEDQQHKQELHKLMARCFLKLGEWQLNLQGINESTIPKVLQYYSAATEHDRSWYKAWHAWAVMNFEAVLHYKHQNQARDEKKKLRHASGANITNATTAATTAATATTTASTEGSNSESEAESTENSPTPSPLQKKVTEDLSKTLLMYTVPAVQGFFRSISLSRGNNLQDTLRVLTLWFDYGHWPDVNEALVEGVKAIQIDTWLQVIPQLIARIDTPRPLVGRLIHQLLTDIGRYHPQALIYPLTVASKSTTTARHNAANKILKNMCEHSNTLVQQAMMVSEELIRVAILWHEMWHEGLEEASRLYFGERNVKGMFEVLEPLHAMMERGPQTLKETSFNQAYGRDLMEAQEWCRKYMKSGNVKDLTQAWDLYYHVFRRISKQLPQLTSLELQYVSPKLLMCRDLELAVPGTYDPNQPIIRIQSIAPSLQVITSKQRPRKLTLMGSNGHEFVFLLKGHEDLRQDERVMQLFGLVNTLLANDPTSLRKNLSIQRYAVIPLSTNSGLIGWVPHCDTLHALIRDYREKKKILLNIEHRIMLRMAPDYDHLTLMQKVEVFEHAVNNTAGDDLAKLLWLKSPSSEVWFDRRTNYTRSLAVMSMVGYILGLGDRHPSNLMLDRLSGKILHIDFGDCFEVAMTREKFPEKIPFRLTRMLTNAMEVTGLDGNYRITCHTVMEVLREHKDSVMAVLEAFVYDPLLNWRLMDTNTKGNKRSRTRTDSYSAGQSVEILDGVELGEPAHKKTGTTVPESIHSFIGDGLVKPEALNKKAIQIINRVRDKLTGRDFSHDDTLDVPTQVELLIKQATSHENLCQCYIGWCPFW

Structure (SMILES)	IC50 [1] [nM]	IC50 [2] [nM]
C[C@H]1COCCN1c1cc(C2(S(=O)(=O)c3ccccc3)CC2)nc(-c2ccc(NC(=S)NCCO)cc2)n1 [Example 37aa, 1-[4-[4-[1-(benzenesulfonyl)cyclopropyl]-6-[(3S)-3-methylmorpholin-4-yl]pyrimidin-2-yl]phenyl]-3-(2-hydroxyethyl)thiourea]	5.67	
C[C@H]1COCCN1c1cc(C2(S(=O)(=O)c3cccc(F)c3)CC2)nc(-c2ccc(NC(=O)Nc3cnn(C)c3)cc2)n1 [Example 53f, 1-[4-[4-[1-(3-fluorophenyl)sulfonylcyclopro-pyl]-6-[(3S)-3-methylmorpholin-4-yl]pyrimidin-2-yl]phenyl]-3-(1-methylpyrazol-4-yl)urea]	6.34	
Cc1csc(S(=O)(=O)C2(c3cc(N4CCOC[C@@H]4C)nc(-c4ccc(NC(=O)NCCCO)cc4)n3)CCC2)n1 [Example 98d, 3-(3-hydroxypropyl)-1-[4-[4-[(3S)-3-methylmorpholin-4-yl]-6-[1-[(4-methyl-1,3-thiazol-2-yl)sulfonyl]cyclobutyl]pyrimidin-2-yl]phenyl]urea]	4.41	
CC(C)S(=O)(=O)C1(c2cc(N3CCOC[C@@H]3C)nc(-c3ccc(NC(=O)NC4CC4)cc3)n2)CC1 [Example 7d, 3-cyclopropyl-1-[4-[4-[(3S)-3-methylmorpholin-4-yl]-6-(1-propan-2-ylsulfonylcyclopropyl)pyrimidin-2-yl]phenyl]urea]		3.8
CNC(=O)Nc1ccc(-c2nc(N3CCOC[C@@H]3C)cc(C3(S(=O)(=O)c4ccc(C)cc4)CC3)n2)cc1 [Example 95l, 3-methyl-1-[4-[4-[(3S)-3-methylmorpholin-4-yl]-6-[1-(4-methylphenyl)sulfonylcyclopropyl]pyrimidin-2-yl]phenyl]urea]	1.09	
CNC(=O)Nc1ccc(-c2nc(N3CCOC[C@@H]3C)cc(C3(S(C)(=O)=O)CCCC3)n2)cc1 [Example 4, 3-Methyl-1-[4-[4-[(3S)-3-methylmorpholin-4-yl]-6-(1-methylsulfonylcyclopentyl)pyrimidin-2-yl]phenyl]urea]		0.699
C[C@H]1COCCN1c1cc(C2(S(=O)(=O)C3CC3)CC2)nc(-c2ccc(NC(=O)NCCF)cc2)n1 [Example 64t, 1-[4-[4-(1-cyclopropylsulfonylcyclopropyl)-6-[(3S)-3-methylmorpholin-4-yl]pyrimidin-2-yl]phenyl]-3-(2-fluoroethyl)urea]	11.4	
CNC(=O)Nc1ccc(-c2nc(N3CCOC[C@@H]3C)cc(C3(S(=O)(=O)c4nnc(C)s4)CC3)n2)cc1 [Example 38a]	0.918	
C[C@H]1COCCN1c1cc(C2(S(C)(=O)=O)CC2)nc(-c2ccc(NC(=O)NCC3CC3)cc2)n1 [Example 2m, 3-(cyclopropylmethyl)-1-[4-[4-[(3S)-3-methylmorpholin-4-yl]-6-(1-methylsulfonylcyclopropyl)pyrimidin-2-yl]phenyl]urea]		5.89
C[C@H]1COCCN1c1cc(C2(S(=O)(=O)c3ccc(F)cc3)CC2)nc(-c2ccc(NC(=O)NCCN(C)C)cc2)n1 [Example 8g, 3-(2-dimethylaminoethyl)-1-[4-[4-[1-(4-fluorophenyl)sulfonylcyclopropyl]-6-[(3S)-3-methylmorpholin-4-yl]pyrimidin-2-yl]phenyl]urea]	78.4	61.3
Cc1nn(C)cc1S(=O)(=O)C1(c2cc(N3CCOC[C@@H]3C)nc(-c3ccc(NC(=O)NCCF)cc3)n2)CC1 [Example 55c, 1-[4-[4-[1-(1,3-dimethylpyrazol-4-yl)sulfonylcyclopropyl]-6-[(3S)-3-methylmorpholin-4-yl]pyrimidin-2-yl]phenyl]-3-(2-fluoroethyl)urea]	18.9	
Cc1nc(S(=O)(=O)C2(c3cc(N4CCOC[C@@H]4C)nc(-c4ccc(NC(=O)NC5CC5)cc4)n3)CC2)sc1C [Example 80b, 3-cyclopropyl-1-[4-[4-[1-[(4,5-dimethyl-1,3-thiazol-2-yl)sulfonyl]cyclopropyl]-6-[(3S)-3-methylmorpholin-4-yl]pyrimidin-2-yl]phenyl]urea]	10.3	
CCNC(=O)Nc1ccc(-c2nc(N3CCOC[C@@H]3C)cc(C3(S(C)(=O)=O)CCCC3)n2)cc1 [Example 4a, 3-ethyl-1-[4-[4-[(3S)-3-methylmorpholin-4-yl]-6-(1-methylsulfonylcyclopentyl)pyrimidin-2-yl]phenyl]urea]	2.17	2.16
CNC(=O)Nc1ccc(-c2nc(N3CCOC[C@@H]3C)cc(C3(S(=O)(=O)c4ccc(F)cc4)CC3)n2)cn1 [Example 14j, 1-[5-[4-[1-(4-fluorophenyl)sulfonylcyclopro-pyl]-6-[(3S)-3-methylmorpholin-4-yl]pyrimidin-2-yl]pyridin-2-yl]-3-methylurea]	12.9	
C[C@H]1COCCN1c1cc(C2(S(=O)(=O)C3CC3)CC2)nc(-c2ccc(NC(=O)NCCO)nc2)n1 [Example 14c, 1-[5-[4-(1-cyclopropylsulfonylcyclopropyl)-6-[(3S)-3-methylmorpholin-4-yl]pyrimidin-2-yl]pyridin-2-yl]-3-(2-hydroxyethyl)urea]	40.1	
C[C@H]1COCCN1c1cc(C2(S(=O)(=O)CCCO)CC2)nc(-c2ccc(NC(=O)NCCCO)cc2)n1 [Example 31i, 3-(3-hydroxypropyl)-1-[4-[4-[1-(3-hydroxypropylsulfonyl)cyclopropyl]-6-[(3S)-3-methylmorpholin-4-yl]pyrimidin-2-yl]phenyl]urea]	3.26	
CNC(=O)Nc1ncc(-c2nc(N3CCOC[C@@H]3C)cc(C3(S(=O)(=O)c4ccc(F)cc4)CC3)n2)cn1 [Example 14f, 1-[5-[4-[1-(4-fluorophenyl)sulfonylcyclopro-pyl]-6-[(3S)-3-methylmorpholin-4-yl]pyrimidin-2-yl]pyrimidin-2-yl]-3-methylurea]	189	
CC[C@H]1COCCN1c1cc(C2(S(C)(=O)=O)CC2)nc(-c2ccc(NC(=O)NCCF)cc2)n1 [Example 84c, 1-[4-[4-[(3S)-3-ethylmorpholin-4-yl]-6-(1-methylsulfonylcyclopropyl)pyrimidin-2-yl]phenyl]-3-(2-fluoroethyl)urea]	8.29	
C[C@H]1COCCN1c1cc(C2(S(=O)(=O)CCCO)CC2)nc(-c2ccc(NC(=O)NC(C)(C)C)cc2)n1 [Example 36cn, 3-tert-butyl-1-[4-[4-[1-(3-hydroxypropylsulfonyl)cyclopropyl]-6-[(3S)-3-methylmorpholin-4-yl]pyrimidin-2-yl]phenyl]urea]	85.8	
C[C@H]1COCCN1c1cc(C2(S(=O)(=O)CCCO)CCOCC2)nc(-c2ccc(NC(=O)NCCO)cc2)n1 [Example 36cg, 3-(2-hydroxyethyl)-1-[4-[4-[4-(3-hydroxypropylsulfonyl)oxan-4-yl]-6-[(3S)-3-methylmorpholin-4-yl]pyrimidin-2-yl]phenyl]urea]	136	
C[C@H]1COC[C@H](C)N1c1cc(C2(S(=O)(=O)C3CC3)CC2)nc(-c2ccc(NC(=O)NCCF)cc2)n1 [Example 92e, 1-[4-[4-(1-cyclopropylsulfonylcyclopropyl)-6-[(3S,5S)-3,5-dimethylmorpholin-4-yl]pyrimidin-2-yl]phenyl]-3-(2-fluoroethyl)urea]	5.99	
C[C@H]1COCCN1c1cc(C2(S(=O)(=O)c3ccncc3)CCC2)nc(-c2ccc(NC(=O)NCCO)cc2)n1 [Example 83, 3-(2-Hydroxyethyl)-1-[4-[4-[(3S)-3-methylmorpholin-4-yl]-6-(1-pyridin-4-ylsulfonylcyclobutyl)pyrimidin-2-yl]phenyl]urea]	3.46	
CCNC(=O)Nc1ccc(-c2nc(N3CCOC[C@@H]3C)cc(C3(S(=O)(=O)c4ccc(F)c(F)c4)CC3)n2)cc1 [Example 64h, 3-[4-[4-[1-(3,4-difluorophenyl)sulfonylcyclopro-pyl]-6-[(3S)-3-methylmorpholin-4-yl]pyrimidin-2-yl]phenyl]-1-ethylurea]	1.48	
C[C@H]1COCCN1c1cc(C2(S(=O)(=O)c3ccc(NCCO)cc3)CC2)nc(-c2cnc(NC(=O)NCCO)nc2)n1 [Example 14aa, 3-(2-hydroxyethyl)-1-[5-[4-[1-[4-(2-hydroxyethylamino)phenyl]sulf-onylcyclopropyl]-6-[(3S)-3-methylmorpholin-4-yl]pyrimidin-2-yl]pyrimidin-2-yl]urea]	18.6	
C[C@H]1COCCN1c1cc(C2(S(=O)(=O)C3CCOCC3)CC2)nc(-c2ccc(NC(=O)NCCO)cc2)n1 [Example 94d, 3-(2-hydroxyethyl)-1-[4-[4-[(3S)-3-methylmorpholin-4-yl]-6-[1-(oxan-4-ylsulfonyl)cyclopropyl]pyrimidin-2-yl]phenyl]urea]	11	
Cc1cc(F)ccc1S(=O)(=O)C1(c2cc(N3CCOC[C@@H]3C)nc(-c3ccc(NC(=O)NCC(F)F)cc3)n2)CC1 [Example 82d, 3-(2,2-difluoroethyl)-1-[4-[4-[1-(4-fluoro-2-methylphenyl)sulfonylcyclopropyl]-6-[(3S)-3-methylmorpholin-4-yl]pyrimidin-2-yl]phenyl]urea]	24.3	
C[C@H]1COCCN1c1cc(C2(S(=O)(=O)c3ccc(F)cc3)CC2)nc(-c2ccc(NC(=O)Nc3ccccn3)cc2)n1 [Example 8l, 1-[4-[4-[1-(4-fluorophenyl)sulfonylcyclopropyl]-6-[(3S)-3-methylmorpholin-4-yl]pyrimidin-2-yl]phenyl]-3-pyridin-2-yl-urea]	8.13	
CS(=O)(=O)C1(c2cc(N3CCOCC3)nc(-c3ccc(NC(=O)NC4CC4)cc3)n2)CCC1 [Example 12p, 3-cyclopropyl-1-[4-[4-(1-methylsulfonylcyclobutyl)-6-morpholin-4-ylpyrimidin-2-yl]phenyl]urea]		1.4
C[C@H]1COCCN1c1cc(C2(S(=O)(=O)CCCO)CC2)nc(-c2ccc(NC(=O)NCCS(C)(=O)=O)cc2)n1 [Example 36cq, 1-[4-[4-[1-(3-hydroxypropylsulfonyl)cyclopropyl]-6-[(3S)-3-methylmorpholin-4-yl]pyrimidin-2-yl]phenyl]-3-(2-methylsulfonylethyl)urea]	114	
